Earlier results as cited in US20120201867A1, “DRUG DELIVERY FROM EMBOLIC AGENTS” (priority 2004, published 2012).
Counter-ions that a name gives are not always drawn.

What was measured:
[1] = tested on: CC531-lacZ cells; details: Saenger et al.
[2] = tested on: topoisomerase I purified from human and rodent tumour cell lines; details: SN-38 versus irinotecan

Structure (SMILES) | complete remission, share of rats [1] | reduction of the mean tumour cell load [1] | potency relative to irinotecan as an inhibitor of topoisomerase I [2]
CCc1c2c(nc3ccc(OC(=O)N4CCC(N5CCCCC5)CC4)cc13)-c1cc3c(c(=O)n1C2)COC(=O)[C@]3(O)CC [irinotecan, Irinotecan hydrochloride trihydrate] | 44% | 66% | 
CCc1c2c(nc3ccc(O)cc13)-c1cc3c(c(=O)n1C2)COC(=O)[C@]3(O)CC [SN-38] |  |  | approximately 1000 times
